Experimental data from ChEMBL document CHEMBL2375303, “Molecular determinants for nuclear receptors selectivity: chemometric analysis, dockings and site-directed mutagenesis of dual peroxisome proliferator-activated receptors α/γ agonists” (Eur J Med Chem, 2013).

Experiments:
Type in all cases: cell-based
[1] = biological target: T1, Peroxisome proliferator-activated receptor alpha (Homo sapiens, UniProt Q07869); experiment: Agonist activity at GAL4-fused PPARalpha (unknown origin) expressed in human HepG2 cells by transactivation assay
T1 sequence (Q07869 whole entry): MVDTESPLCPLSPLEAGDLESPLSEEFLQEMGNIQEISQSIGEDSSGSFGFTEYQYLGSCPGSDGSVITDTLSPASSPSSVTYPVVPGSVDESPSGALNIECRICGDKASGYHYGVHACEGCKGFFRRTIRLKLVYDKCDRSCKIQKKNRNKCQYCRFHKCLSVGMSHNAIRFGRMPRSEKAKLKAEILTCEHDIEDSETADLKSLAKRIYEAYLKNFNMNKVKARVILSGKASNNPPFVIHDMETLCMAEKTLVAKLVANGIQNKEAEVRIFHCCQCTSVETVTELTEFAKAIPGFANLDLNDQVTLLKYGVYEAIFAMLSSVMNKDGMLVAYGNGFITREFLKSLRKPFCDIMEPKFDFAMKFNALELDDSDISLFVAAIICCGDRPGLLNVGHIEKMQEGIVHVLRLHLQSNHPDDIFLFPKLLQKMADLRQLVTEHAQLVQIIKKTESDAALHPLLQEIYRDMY

[2] = biological target: T2, Peroxisome proliferator-activated receptor gamma (Homo sapiens, UniProt P37231); experiment: Agonist activity at GAL4-fused PPARgamma (unknown origin) expressed in human HepG2 cells by transactivation assay
T2 sequence (P37231 whole entry): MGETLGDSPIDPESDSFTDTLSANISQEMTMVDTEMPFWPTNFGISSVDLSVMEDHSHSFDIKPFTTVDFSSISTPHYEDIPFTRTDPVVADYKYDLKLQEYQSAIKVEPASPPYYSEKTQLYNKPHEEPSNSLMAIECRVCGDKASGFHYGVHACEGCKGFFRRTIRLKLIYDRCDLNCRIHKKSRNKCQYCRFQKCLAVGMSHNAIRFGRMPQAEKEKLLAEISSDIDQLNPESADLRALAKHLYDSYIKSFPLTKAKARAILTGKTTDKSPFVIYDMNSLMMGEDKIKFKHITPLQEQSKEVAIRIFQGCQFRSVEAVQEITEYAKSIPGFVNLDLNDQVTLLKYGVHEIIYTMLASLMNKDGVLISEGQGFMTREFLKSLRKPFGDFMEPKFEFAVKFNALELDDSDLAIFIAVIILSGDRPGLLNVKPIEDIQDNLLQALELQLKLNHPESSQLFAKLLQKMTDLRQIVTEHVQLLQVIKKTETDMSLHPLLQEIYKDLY

[3] = biological target: Peroxisome proliferator-activated receptor alpha (Homo sapiens, UniProt Q07869, A454M); experiment: Agonist activity at GAL4-fused PPARalpha A454M mutant (unknown origin) expressed in human HepG2 cells by transactivation assay
[4] = Agonist activity at GAL4-fused PPARgamma M463A mutant (unknown origin) expressed in human HepG2 cells by transactivation assay

Sequence of Peroxisome proliferator-activated receptor alpha (Homo sapiens, UniProt Q07869, A454M) (Q07869 whole entry A454M, the tested form may be a part): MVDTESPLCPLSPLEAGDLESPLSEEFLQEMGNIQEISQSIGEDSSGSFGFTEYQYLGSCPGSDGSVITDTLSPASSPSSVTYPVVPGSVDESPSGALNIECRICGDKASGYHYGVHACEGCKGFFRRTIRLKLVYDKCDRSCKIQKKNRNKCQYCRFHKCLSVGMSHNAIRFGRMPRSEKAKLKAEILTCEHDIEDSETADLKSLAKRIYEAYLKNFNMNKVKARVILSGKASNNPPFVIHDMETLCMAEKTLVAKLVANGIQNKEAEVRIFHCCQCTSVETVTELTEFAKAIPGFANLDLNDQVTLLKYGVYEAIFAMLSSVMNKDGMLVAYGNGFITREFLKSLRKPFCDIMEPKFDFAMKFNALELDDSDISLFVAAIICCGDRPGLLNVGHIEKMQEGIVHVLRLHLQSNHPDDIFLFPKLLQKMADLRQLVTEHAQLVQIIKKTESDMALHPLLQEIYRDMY

| SMILES | EC50 ([1]; read-out: pEC50 (converted)) [nM] | EC50 ([2]; read-out: pEC50 (converted)) [nM] | EC50 ([1]; read-out: EC50) [nM] | EC50 [3] [nM] | EC50 [4] [nM] | EC50 ([2]; read-out: EC50) [nM] |
| --- | --- | --- | --- | --- | --- | --- |
| O=C(O)[C@H](CCc1ccccc1)Oc1ccc(Cl)cc1 | 2400 | 7080 | – | – | – | – |
| O=C(O)[C@H](CCCc1ccccc1)Oc1ccc(Cl)cc1 | 589 | 912 | – | – | – | – |
| O=C(O)[C@H](CCCc1ccc(Cl)cc1)Oc1ccc(Cl)cc1 | 631 | 316 | – | – | – | – |
| O=C(O)[C@H](COc1ccccc1)Oc1ccc(Cl)cc1 | 2510 | 1660 | – | – | – | – |
| O=C(O)[C@H](CCOc1ccccc1)Oc1ccc(Cl)cc1 | 3020 | 1260 | – | – | – | – |
| O=C(O)[C@H](Cc1ccc(C(F)(F)F)cc1)Oc1ccc(Cl)cc1 | 3630 | 417 | – | – | – | – |
| O=C(O)[C@H](Cc1ccc(-c2cccs2)cc1)Oc1ccc(Cl)cc1 | 589 | 64.6 | – | – | – | – |
| CN(CCOc1ccc(CC2SC(=O)NC2=O)cc1)c1ccccn1 (stereo unspecified) [ROSIGLITAZONE] | – | – | – | – | 2 | – |

Results, then the compound that gave them:

| EC50 ([1]; read-out: pEC50 (converted)) [nM] | EC50 ([2]; read-out: pEC50 (converted)) [nM] | EC50 ([1]; read-out: EC50) [nM] | EC50 [3] [nM] | EC50 [4] [nM] | EC50 ([2]; read-out: EC50) [nM] | SMILES |
| --- | --- | --- | --- | --- | --- | --- |
| 891 | 1580 | – | – | – | – | O=C(O)[C@H](Cc1ccccc1)Oc1ccc(Oc2ccccc2)cc1 |
| 3890 | 8910 | – | – | – | – | O=C(O)[C@H](Cc1ccccc1)Oc1ccc(-c2ccc(Cl)cc2)cc1 |
| 871 | 26.9 | 3900 | 900 | 340 | 320 | O=C(O)[C@H](Cc1ccc(Oc2ccccc2)cc1)Oc1ccc(Cl)cc1 |
| 1120 | 49 | – | – | – | – | O=C(O)[C@H](Cc1ccc(-c2ccccc2)cc1)Oc1ccc(Cl)cc1 |
| – | – | 40 | 400 | 470 | 600 | O=C(O)[C@H](Cc1ccccc1)Oc1ccc(Cc2ccccc2)cc1 |
